Series [1] is described as follows: Lipophilicity by gradient RP-HPLC (C18, pH 7.4): CHI, chrom logD, PFI. Format: physicochemical. Also noted: key to PFI (Property Forecast Index): PFI = Chrom logD7.4 + number of aromatic rings. Particulars: for chromatographic logD: C18 Hypersil GOLD reversed-phase HPLC column, pH 7.4, C18 column; for chromatographic logD / chrom logD (RP-HPLC): pH 7.4, Chrom logD = 0.0525 × CHI − 1.467; for CHI C18: C18 at pH 7.4; for chrom logD (RP-HPLC): C18 column; for PFI (Property Forecast Index): PFI = Chrom logD7.4 + #Ar, threshold 7. The source says:
(§1) All chromatographic experiments adhered to the protocols established by Valko and colleagues, which were implemented in our laboratory. Essentially, biochromatography facilitated the assessment of lipophilicity and phospholipid affinity, represented as Chromatographic Hydrophobicity Index (CHI) values, through a gradient elution experiment, comparing results with model substances. The Prominence-1 LC-2030C 3D HPLC system, operated via LabSolution software (v6.81, Kyoto, Japan), was utilized for all chromatographic analyses. Throughout the research, distinct chromatographic columns were employed: IAM.PC.DD2 (10 × 4.6 mm × 10.0 µm with a guard column; Regis Technologies; USA) and C18 Hypersil GOLD^TM (100 mm × 4.6 mm; 5.0 µm with a guard column; Thermo Scientific, Waltham, MA, USA). Each column was paired with guard columns featuring the same stationary phases as the main column. Mobile phase A consisted of a water solution of 50 mM ammonium acetate (VWR International, Leuven, Belgium), adjusted to physiological pH 7.4 using concentrated ammonia solution (Avantor Performance Materials Poland S.A., Gliwice, Poland). The mobile phase was prepared with ultrapure water from a Milli-Q water purification system (Merck Millipore, Darmstadt, Germany), achieving a resistivity of 18.2 MΩ. For phospholipid binding assessments, mobile phase B was HPLC grade acetonitrile (Chempur, Piekary Śląskie, Poland), with a linear gradient from 0 to 85% B over 5.25 min, then maintained at 85% ACN for 0.5 min. The mobile phase was delivered at a flow rate of 1.5 mL/min, with the IAM.PC.DD2 column temperature held steady at 30 °C. For lipophilicity evaluations, the solvents and flow rate mirrored those used in IAM chromatography. The C18 Hypersil GOLD^TM column was kept at 40 °C. Similarly, a linear gradient was applied from 0 to 5.25 min, but, in this instance, it ranged from 2 to 98% ACN, with the maximum phase B concentration sustained for 2.5 min. Dimethyl sulfoxide (Avantor Performance Materials Poland S.A., Poland) was employed to dissolve the target solutes, forming a solution with a concentration of 200 µg/mL. Detection occurred in the UV region at a wavelength of 190–300 nm. The injection volume was 5 μL, and each compound was analyzed in duplicate, with retention time variation below 0.5%. Retention times for the studied molecules and reference standards are detailed in the Supplementary Material, Tables S1 and S2.
Experimentally determined CHI values were converted to chrom logD using the following equation [53]:Chrom logD = 0.0525 × CHI − 1.467(1)
In addition, the Property Forecast Index (PFI), the sum of the number of aromatic rings(#Ar), and a lipophilicity measure are used to reflect the principle of simultaneous minimization of lipophilicity and aromaticity, which supports the selection of oral clinical candidates in GKS [47].PFI = Chrom logD7.4 + #Ar(2)

For the next series, the system named is SW480. Description: MTS cytotoxicity assay, SW480 colorectal cancer cells. The format is cell-based, human. Particulars: for IC50: MTS, 24 h incubation, n = 3, >100 = no detectable effect at highest concentration, * = IC50 could not be determined (high variability or no consistent dose-response), read-out: Cytotoxicity IC50 ± SD, SW480. The procedure: (§2) The human colorectal cancer cell lines SW620, SW480 were obtained from the American Type Culture Collection (ATCC). Both cell lines were cultured in Dulbecco’s Modified Eagle Medium (DMEM) (Capricorn Scientific GmbH, Manassas, USA), which was supplemented with 10% fetal bovine serum (FBS) and 50 µg/mL of gentamicin. Cells were incubated at 37 °C in a humidified atmosphere containing 5% CO₂. The cultures were passaged approximately every three days upon reaching confluence using a 0.25% trypsin-EDTA solution, at a ratio of approximately 1:3 to 1:4. For the MTS assay, cells were seeded at a density of 10,000 cells per well in 96-well plates. After 24 h, compounds were added at five concentrations ([…]), and cells were incubated for an additional 24 h. Cytotoxicity was assessed using the CellTiter 96® AQueous One Solution Cell Proliferation Assay (Promega), following the manufacturer’s instructions. Absorbance was measured at 490 nm using a microplate reader.
(§3) The IC₅₀ values were determined relative to the untreated control cells (without test compounds). All experiments were performed in triplicate (n = 3). Compounds for which IC₅₀ values could not be reliably determined were excluded from quantitative analysis. […] Such compounds are reported as ‘>100µM’ or ‘>100µM*’, respectively, in the results.
For orientation: Tetrazolium assays rely on reduction of a dye to a coloured formazan, in cell work by metabolically active cells.

A short description of series [2]: Phospholipid affinity by IAM-HPLC (IAM.PC.DD2 column). Format: physicochemical. Particulars: pH 7.4, phospholipidosis threshold >50.
Description: as §1

The subject of another series is SW620. As to the kind of experiment: MTS cytotoxicity assay, SW620 colorectal cancer cells. Format: cell-based, human. Particulars: for IC50: Homo sapiens, SW-620, MTS, 24 h incubation, n = 3, >100 = no detectable effect at highest concentration, * = IC50 could not be determined (high variability or no consistent dose-response), read-out: Cytotoxicity IC50 ± SD, SW620. The method, then:
as §2, §3

Each structure is given as a SMILES string. Where two headings read alike, the source gives them in different places. Bounds are passed on as bounds.

Usually chromatographic logD stands for lipophilicity estimated from chromatographic retention. A word on the IC50: it is the concentration at which inhibition is half-maximal.

Consider `Cl.Clc1ccccc1Nc1nc(N2CCOCC2)nc(N2CCN(c3ccccc3)CC2)n1` [Compound 8, N-(2-chlorophenyl)-4-morpholino-6-(4-phenylpiperazin-1-yl)-1,3,5-triazin-2-amine hydrochloride], for which, in series [1], the chromatographic logD is 4.15, the “CHI C18” value was 107, the “chrom logD (RP-HPLC)” value stood at 4.148 and the “PFI (Property Forecast Index)” value is recorded as 7.15. The IC50 in the series on SW480 (Homo sapiens) was 20.6 ± 24.9 µM. Besides, the “CHI IAM (IAM-HPLC)” value in series [2] turned out to be 47.79.
Regarding `Cl.Clc1ccccc1Nc1nc(Nc2ccccc2)nc(N2CCOCC2)n1` [Compound 4, N^2-(2-chlorophenyl)-6-morpholino-N^4-phenyl-1,3,5-triazine-2,4-diamine hydrochloride], in series [1], the chromatographic logD turned out to be 4.1, the “CHI C18” value is listed as 106, the “chrom logD (RP-HPLC)” value is 4.098 and the “PFI (Property Forecast Index)” value was found to be 7.10. Moreover, the IC50 in the series on SW480 (Homo sapiens) is > 100 µM. Besides, the IC50 in the series on SW620 came to 36.1 ± 46.5 µM. In series [2], the “CHI IAM (IAM-HPLC)” value came to 46.34.
For `Cl.Clc1ccccc1Nc1nc(NCCOc2ccccc2)nc(N2CCOCC2)n1` [Compound 11, N^2-(2-chlorophenyl)-6-morpholino-N^4-(2-phenoxyethyl)-1,3,5-triazine-2,4-diamine hydrochloride], in series [1], the chromatographic logD is 4.01, the “CHI C18” value was 104.4, the “chrom logD (RP-HPLC)” value stood at 4.012 and the “PFI (Property Forecast Index)” value came out at 7.01. Moreover, in the series with SW620, the IC50 came out at 5.85 ± 14.3 µM. The “CHI IAM (IAM-HPLC)” value in series [2] is on record as 45.92.
For the compound `Cl.Clc1ccccc1Nc1nc(NCCc2ccccc2)nc(N2CCOCC2)n1` [Compound 3, N^2-(2-chlorophenyl)-6-morpholino-N^4-phenethyl-1,3,5-triazine-2,4-diamine hydrochloride], in series [1], the chromatographic logD worked out at 3.95 and the “chrom logD (RP-HPLC)” value is reported as 3.947. Further, the “Cytotoxic activity in words, SW480” value in the series on SW480 is “limited cytotoxic potential”. In addition, the half-maximal inhibitory concentration (IC50) in the series with SW480 (Homo sapiens) was > 100 µM. Further, in the series on SW620, the “Cytotoxic activity in words, SW620” value is “limited cytotoxic potential” and the IC50 is > 100 µM. Besides, the “CHI IAM (IAM-HPLC)” value in series [2] was found to be 55.97.
For the compound `O=c1[nH]cc(F)c(=O)[nH]1` [5-fluorouracil, reference compound], the half-maximal inhibitory concentration (IC50) in the series on SW480 (Homo sapiens) was determined as 15.5 ± 7.83 µM; in the series on SW620 it was 21.7 ± 2.75 µM.
For the compound `Cl.Clc1ccccc1Nc1nc(NCCNc2ccccc2)nc(N2CCOCC2)n1` [Compound 10, N^2-(2-chlorophenyl)-6-morpholino-N^4-(2-(phenylamino)ethyl)-1,3,5-triazine-2,4-diamine hydrochloride], in series [1], the chromatographic logD was 3.94, the “CHI C18” value stood at 102.9, the “chrom logD (RP-HPLC)” value was determined as 3.936 and the “PFI (Property Forecast Index)” value is 6.94. Further, in the series on SW480, the “Cytotoxic activity in words, SW480” value is reported as “limited cytotoxic potential”. Also, the IC50 with SW480 (Homo sapiens) is > 100 µM. Also, the “Cytotoxic activity in words, SW620” value in the series on SW620 is “limited cytotoxic potential”. Further, in series [2], the “CHI IAM (IAM-HPLC)” value is listed as 44.55.
For the compound `Cl.Clc1ccccc1Nc1nc(NCc2ccccc2)nc(N2CCOCC2)n1` [Compound 5, N^2-benzyl-N^4-(2-chlorophenyl)-6-morpholino-1,3,5-triazine-2,4-diamine hydrochloride], in series [1], the chromatographic logD came out at 3.95, the “CHI C18” value was found to be 103.1, the “chrom logD (RP-HPLC)” value amounted to 3.947 and the “PFI (Property Forecast Index)” value is 6.95. The IC50 in the series on SW480 (Homo sapiens) is 43.1 µM. The IC50 in the series on SW480 came out at 43.4 ± 12.2 µM. The IC50 with SW620 was 32.8 ± 23.4 µM. Besides, the “CHI IAM (IAM-HPLC)” value in series [2] came to 46.45.
As to `Cl.Clc1ccccc1Nc1nc(N2CCOCC2)nc(N2CCN(c3nsc4ccccc34)CC2)n1` [Compound 9, 4-(4-(benzo[d]isothiazol-3-yl)piperazin-1-yl)-N-(2-chlorophenyl)-6-morpholino-1,3,5-triazin-2-amine hydrochloride], in series [1], the chromatographic logD worked out at 4.23, the “CHI C18” value is 108.4, the “chrom logD (RP-HPLC)” value is given as 4.226 and the “PFI (Property Forecast Index)” value is listed as 7.23. The “Cytotoxic activity in words, SW480” value in the series on SW480 is “inactive”. The IC50 in the series with SW480 (Homo sapiens) was > 100 µM. For the same compound, in the series with SW620, the “Cytotoxic activity in words, SW620” value is recorded as “some activity” and the IC50 is 22.1 ± 17.3 µM. In series [2], the “CHI IAM (IAM-HPLC)” value is 48.02.
Consider `Cl.Clc1ccccc1Nc1nc(NCCCc2ccccc2)nc(N2CCOCC2)n1` [Compound 6, N^2-(2-chlorophenyl)-6-morpholino-N^4-(3-phenylpropyl)-1,3,5-triazine-2,4-diamine hydrochloride], for which, in series [1], the chromatographic logD was 4.71, the “CHI C18” value is reported as 117.6, the “chrom logD (RP-HPLC)” value was 4.706 and the “PFI (Property Forecast Index)” value worked out at 7.71. Moreover, in the series on SW480, the “Cytotoxic activity in words, SW480” value is on record as “limited cytotoxic potential”. The IC50 with SW480 (Homo sapiens) was > 100 µM. Further, in the series on SW620, the “Cytotoxic activity in words, SW620” value is listed as “limited cytotoxic potential” and the IC50 is > 100 µM. Moreover, the “CHI IAM (IAM-HPLC)” value in series [2] turned out to be 51.63.
In the case of `Cl.Fc1ccc(N2CCN(CCNc3nc(Nc4ccccc4Cl)nc(N4CCOCC4)n3)CC2)cc1` [Compound 7, N^2-(2-chlorophenyl)-N^4-(2-(4-(4-fluorophenyl)piperazin-1-yl)ethyl)-6-morpholino-1,3,5-triazine-2,4-diamine hydrochloride], in series [1], the chromatographic logD came out at 4.44, the “CHI C18” value is reported as 112.6, the “chrom logD (RP-HPLC)” value is on record as 4.443 and the “PFI (Property Forecast Index)” value is listed as 7.44. The “Cytotoxic activity in words, SW480” value in the series with SW480 was “limited cytotoxic potential”. In addition, the IC50 in the series with SW480 (Homo sapiens) is > 100 µM. Besides, the “Cytotoxic activity in words, SW620” value with SW620 was “limited cytotoxic potential”. For the same compound, the “CHI IAM (IAM-HPLC)” value in series [2] is on record as 49.59.

Source of the values: publication PMC12157728, “Green and Efficient Synthetic Protocol for 1,3,5-Triazine Derivatives with Anticancer Potential Against Colorectal Cancer” (Molecules, 2025).
